Test results published in patent US9265253B2, “Use of macrocyclic picolinamides as fungicides” (DOW AGROSCIENCES LLC, priority 2013, dated 2016).
Read-outs that look alike come from different tables or passages of the source.

What was measured:
[1] = test system: Mycosphaerella graminicola; Anamorph: Septoria tritici; experiment: Leaf Blotch of Wheat (SEPTTR) disease control; type: in vivo; settings: for pest or weed control at 100 ppm / pest or weed control at 121.5 g/ha: Zymoseptoria tritici
Experimental: (§1) Technical grades of materials were dissolved in acetone, which were then mixed with nine volumes of water containing 110 ppm Triton X-100. The fungicide solutions were applied onto wheat seedlings using an automated booth sprayer to run-off. All sprayed plants were allowed to air dry prior to further handling. All fungicides were evaluated using the aforementioned method for their activity vs. all target diseases. Wheat leaf blotch and brown rust activity were also evaluated using track spray applications, in which case the fungicides were formulated as EC formulations, containing 0.1% Trycol 5941 in the spray solutions. Wheat plants (variety Yuma) were grown from seed in a greenhouse in 50% mineral soil/50% soil-less Metro mix until the first leaf was fully emerged, with 7-10 seedlings per pot. These plants were inoculated with an aqueous spore suspension of Septoria tritici either prior to or after fungicide treatments. After inoculation the plants were kept in 100% relative humidity (one day in a dark dew chamber followed by two to three days in a lighted dew chamber at 20° C.) to permit spores to germinate and infect the leaf. The plants were then transferred to a greenhouse set at 20° C. for disease to develop. When disease symptoms were fully expressed on the 1st leaves of untreated plants, infection levels were assessed on a scale of 0 to 100 percent disease severity. Percent disease control was calculated using the ratio of disease severity on treated plants relative to untreated plants.

[2] = test system: Puccinia triticina; Synonym: Puccinia recondite f. Sp. Tritici; experiment: Wheat Brown Rust (PUCCRT) disease control; type: in vivo; settings: for pest or weed control at 121.5 g/ha / pest or weed control at 100 ppm: Puccinia triticina, topical
Experimental: as §1, with “plants. Wheat plants (variety Yuma) were grown from seed in a greenhouse in 50% mineral soil/50% soil-less Metro mix until the first leaf was fully emerged, with 7-10 seedlings per pot. These plants were inoculated with an aqueous spore suspension of Puccinia triticina either prior to or after fungicide treatments. After inoculation the plants were kept in a dark dew room at 22° C. with 100% relative humidity overnight to permit spores to germinate and infect the leaf. The plants were then transferred to a greenhouse set at 24° C. for disease to develop. Fungicide formulation, application and disease assessment followed the procedures as described in the Example A.” for “plants.”

[3] = 24 h, 1 Day Protectant, rate 100 ppm, read-out: SEPTTR 1 DP disease control
[4] = 24 h, 1 Day Protectant, rate 121.5 g/H, read-out: SEPTTR 1 DP disease control
[5] = 72 h, 3 Day Curative, rate 100 ppm, read-out: SEPTTR 3 DC disease control
[6] = 72 h, 3 Day Curative, rate 121.5 g/H, read-out: SEPTTR 3 DC disease control
[7] = 24 h, 1 Day Protectant, rate 121.5 g/H, read-out: PUCCRT 1 DP disease control
[8] = 72 h, 3 Day Curative, rate 100 ppm, read-out: PUCCRT 3 DC disease control
[9] = 72 h, 3 Day Curative, rate 121.5 g/H, read-out: PUCCRT 3 DC disease control
[10] = 24 h, 1 Day Protectant, rate 100 ppm, read-out: PUCCRT 1 DP disease control

Row | SMILES | pest or weed control at 100 ppm [1, 3] | pest or weed control at 121.5 g/ha [1, 4] | pest or weed control at 100 ppm [1, 5] | pest or weed control at 121.5 g/ha [1, 6] | pest or weed control at 121.5 g/ha [2, 7] | pest or weed control at 100 ppm [2, 8] | pest or weed control at 121.5 g/ha [2, 9] | pest or weed control at 100 ppm [2, 10] | further results
1 | COc1ccnc(C(=O)N[C@H]2CCC[C@H](Cc3ccc(F)cc3)[C@@H](OC(=O)C(C)C)[C@H](C)OC2=O)c1OCOC(C)=O [Compound F105] | 80 to 100% | 80 to 100% | 80 to 100% | 80 to 100% | 80 to 100% | 80 to 100% | 80 to 100% | – | –
2 | CC[C@H]1CCC[C@H](NC(=O)c2nccc(OC)c2O)C(=O)O[C@@H](C)[C@@H]1Oc1ccccc1 [Compound F51] | 80 to 100% | – | 0 to 80% | – | – | 0 to 80% | – | 80 to 100% | –
3 | CCCO[C@@H]1[C@@H](CC2CCCC2)CCC[C@H](NC(=O)c2nccc(OC)c2O)C(=O)O[C@H]1C [Compound F36] | 80 to 100% | – | – | – | – | – | – | 80 to 100% | –
4 | COc1ccnc(C(=O)N[C@H]2CCC[C@H](CC3CCCC3)[C@@H](OCC(C)C)[C@H](C)OC2=O)c1O [Compound F37] | 80 to 100% | – | – | – | – | 0 to 80% | – | 0 to 80% | –
5 | CCO[C@@H]1[C@@H](Cc2ccccc2)CCC[C@H](NC(=O)c2nccc(OC)c2OCOC(C)=O)C(=O)O[C@H]1C [Compound F111] | – | 80 to 100% | – | 80 to 100% | 80 to 100% | – | 80 to 100% | – | –
6 | CCOCC(=O)OCOc1c(OC)ccnc1C(=O)N[C@H]1CCC[C@H](Cc2ccc(C)cc2)[C@@H](OCCCC(F)(F)F)[C@H](C)OC1=O [Compound F190, ((4-methoxy-2-(((3S,7R,8R,9S)-9-methyl-7-(4-methylbenzyl)-2-oxo-8-(4,4,4-trifluorobutoxyl)oxonan-3-yl)carbamoyl)pyridin-3-yl)oxy)methyl 2-ethoxyacetate] | – | – | – | – | – | – | – | – | pest or weed control at 100 ppm ([1]; 24 h, Wheat Leaf Blotch, 1 Day Protectant, rate 100 ppm (high volume application), read-out: Disease control SEPTTR 1 DP): 80 to 100%; pest or weed control at 121.5 g/ha ([1]; 24 h, Wheat Leaf Blotch, 1 Day Protectant, rate 121.5 g/H (low volume application), read-out: Disease control SEPTTR 1 DP): 80 to 100%; pest or weed control at 100 ppm ([1]; 72 h, Wheat Leaf Blotch, 3 Day Curative, rate 100 ppm (high volume application), read-out: Disease control SEPTTR 3 DC): 80 to 100%; pest or weed control at 121.5 g/ha ([1]; 72 h, Wheat Leaf Blotch, 3 Day Curative, rate 121.5 g/H (low volume application), read-out: Disease control SEPTTR 3 DC): 80 to 100%; pest or weed control at 100 ppm ([2]; 24 h, Wheat Brown Rust, 1 Day Protectant, rate 100 ppm (high volume application), read-out: Disease control PUCCRT 1 DP): 80 to 100%; pest or weed control at 121.5 g/ha ([2]; 24 h, Wheat Brown Rust, 1 Day Protectant, rate 121.5 g/H (low volume application), read-out: Disease control PUCCRT 1 DP): 80 to 100%; pest or weed control at 121.5 g/ha ([2]; 72 h, Wheat Brown Rust, 3 Day Curative, rate 121.5 g/H (low volume application), read-out: Disease control PUCCRT 3 DC): 0 to 80%
7 | COc1ccnc(C(=O)N[C@H]2CCC[C@H](CCC(C)C)[C@@H](OCC(C)C)[C@H](C)OC2=O)c1OCOC(C)=O [Compound F90] | 80 to 100% | 80 to 100% | 80 to 100% | 80 to 100% | 80 to 100% | 80 to 100% | 80 to 100% | 80 to 100% | –
8 | COc1ccnc(C(=O)N[C@H]2CCC[C@H](CC3CCCC3)[C@@H](OCC(C)C)[C@H](C)OC2=O)c1OC(C)=O [Compound F75] | 80 to 100% | 80 to 100% | 80 to 100% | 80 to 100% | 80 to 100% | 80 to 100% | 0 to 80% | 80 to 100% | –
9 | CCOCC(=O)Oc1c(OC)ccnc1C(=O)N[C@H]1CCC[C@H](CCOc2ccccc2)[C@@H](Oc2ccccc2)[C@H](C)OC1=O [Compound F185] | 80 to 100% | – | 80 to 100% | – | – | 80 to 100% | – | 80 to 100% | –
10 | COc1ccnc(C(=O)N[C@H]2CCC[C@H](Cc3ccc(C)cc3)[C@@H](OCCCC(F)(F)F)[C@H](C)OC2=O)c1O [Compound F55] | – | – | – | – | – | – | – | – | SEPTTR 1 DP disease control ([1]; 1 Day Protectant, rate 100 ppm): A (80-100); SEPTTR 3 DC disease control ([1]; 3 Day Curative, rate 100 ppm): B (More than 0-Less than 80); PUCCRT 1 DP disease control ([2]; 1 Day Protectant, rate 100 ppm): A (80-100)
11 | COCCO[C@@H]1[C@@H](Cc2ccccc2)CCC[C@H](NC(=O)c2nccc(OC)c2O)C(=O)O[C@H]1C [Compound F24] | 80 to 100% | – | 80 to 100% | – | – | 80 to 100% | – | 80 to 100% | –
12 | COCC[C@H]1CCC[C@H](NC(=O)c2nccc(OC)c2O)C(=O)O[C@@H](C)[C@@H]1Oc1ccccc1 [Compound F45] | 80 to 100% | – | 80 to 100% | – | – | 80 to 100% | – | 80 to 100% | –
13 | COc1ccnc(C(=O)N[C@H]2CCC[C@H](Cc3ccc(F)cc3)[C@@H](OCC(F)F)[C@H](C)OC2=O)c1OC(C)=O [Compound F69] | 80 to 100% | 80 to 100% | 80 to 100% | 80 to 100% | 80 to 100% | 80 to 100% | 80 to 100% | 80 to 100% | –
14 | COc1ccnc(C(=O)N[C@H]2CCC[C@H](CC3CCCC3)[C@@H](OCC3CC3)[C@H](C)OC2=O)c1OCOC(=O)C(C)C [Compound F154, ((2-(((3S,7R,8R,9S)-7-(cyclopentylmethyl)-8-(cyclopropylmethoxy)-9-methyl-2-oxooxonan-3-yl)carbamoyl)-4-methoxypyridin-3-yl)oxy)methyl isobutyrate] | 80 to 100% | 80 to 100% | 80 to 100% | 80 to 100% | 80 to 100% | 80 to 100% | 80 to 100% | 80 to 100% | –
15 | COc1ccnc(C(=O)N[C@H]2CCC[C@H](CCC(C)C)[C@@H](OC3CCCC3)[C@H](C)OC2=O)c1O [Compound F6] | 80 to 100% | – | 80 to 100% | – | – | 80 to 100% | – | 80 to 100% | –
16 | COc1ccnc(C(=O)N[C@H]2CCC[C@H](CCC(C)C)[C@@H](OC3CCCC3)[C@H](C)OC2=O)c1OCOC(C)=O [Compound F94] | 80 to 100% | – | 80 to 100% | – | – | 80 to 100% | – | 80 to 100% | –
17 | COc1ccnc(C(=O)N[C@H]2CCC[C@H](CCOCC3CC3)[C@@H](OCC3CC3)[C@H](C)OC2=O)c1OCOC(C)=O [Compound F140] | 80 to 100% | 0 to 80% | 0 to 80% | 0 to 80% | 80 to 100% | 80 to 100% | 80 to 100% | 80 to 100% | –
18 | COc1ccnc(C(=O)N[C@H]2CCC[C@H](Cc3ccc(F)cc3)[C@@H](OC(=O)C(C)C)[C@H](C)OC2=O)c1O [Compound F17] | 80 to 100% | – | 80 to 100% | – | – | 0 to 80% | – | 80 to 100% | –
